Measured values: ChEMBL document CHEMBL4715878 (J Med Chem, 2020)
Calls of active or inactive are those of the source. No cut-off for these calls is given here.

How the values were obtained:
[1] = system: MDA-MB-231; experiment: Induction of apoptosis in human MDA-MB-231 cells assessed as accumulation in late apoptotic cells at 5 uM incubated for 72 hrs by Annexin V-FITC/PI staining based flow cytometry analysis; format: functional, cell-based
[2] = system: MDA-MB-231; experiment: Induction of apoptosis in human MDA-MB-231 cells assessed as accumulation in early apoptotic cells at 5 uM incubated for 72 hrs by Annexin V-FITC/PI staining based flow cytometry analysis; format: functional, cell-based
[3] = system: MCF7; experiment: Induction of apoptosis in human MCF7 cells assessed as accumulation in late apoptotic cells at 5 uM incubated for 72 hrs by Annexin V-FITC/PI staining based flow cytometry analysis; format: functional, cell-based
[4] = system: MCF7; experiment: Induction of apoptosis in human MCF7 cells assessed as accumulation in early apoptotic cells at 5 uM incubated for 72 hrs by Annexin V-FITC/PI staining based flow cytometry analysis; format: functional, cell-based
[5] = system: BT-474; experiment: Induction of apoptosis in human BT474 cells assessed as increase in late apoptotic cells at 0.5 to 5 uM incubated for 72 hrs by Annexin V-FITC/PI staining based flow cytometry analysis relative to control; format: functional; settings: dose 0.5-5 µM
[6] = system: BT-474; experiment: Induction of apoptosis in human BT474 cells assessed as increase in early apoptotic cells at 0.5 to 5 uM incubated for 72 hrs by Annexin V-FITC/PI staining based flow cytometry analysis relative to control; format: functional; settings: dose 0.5-5 µM
[7] = system: BT-474; experiment: Induction of apoptosis in human BT474 cells assessed as increase in early apoptotic cells at 0.2 uM incubated for 72 hrs by Annexin V-FITC/PI staining based flow cytometry analysis relative to control; format: functional
[8] = system: BT-474; experiment: Induction of apoptosis in human BT474 cells assessed as increase in early apoptotic cells incubated for 72 hrs by Annexin V-FITC/PI staining based flow cytometry analysis; format: functional, cell-based; settings: dose 0.1-5 µM
[9] = system: MDA-MB-231; experiment: Antiproliferative activity against human MDA-MB-231 cells assessed as reduction in cell viability incubated for 72 hrs by WST8 assay; format: functional, cell-based; settings: MDA-MB-231, 72 h
[10] = system: MCF7; experiment: Antiproliferative activity against human MCF7 cells assessed as reduction in cell viability incubated for 72 hrs by WST8 assay; format: functional, cell-based; settings: MCF7, 72 h
[11] = biological target: T1, Receptor tyrosine-protein kinase erbB-2 (Homo sapiens, UniProt P04626); experiment: Inhibition of wild-type HER2 (unknown origin) at 0.5 nM in presence of substrate incubated for 30 mins by ADP-Glo assay relative to control
T1 sequence (P04626 whole entry): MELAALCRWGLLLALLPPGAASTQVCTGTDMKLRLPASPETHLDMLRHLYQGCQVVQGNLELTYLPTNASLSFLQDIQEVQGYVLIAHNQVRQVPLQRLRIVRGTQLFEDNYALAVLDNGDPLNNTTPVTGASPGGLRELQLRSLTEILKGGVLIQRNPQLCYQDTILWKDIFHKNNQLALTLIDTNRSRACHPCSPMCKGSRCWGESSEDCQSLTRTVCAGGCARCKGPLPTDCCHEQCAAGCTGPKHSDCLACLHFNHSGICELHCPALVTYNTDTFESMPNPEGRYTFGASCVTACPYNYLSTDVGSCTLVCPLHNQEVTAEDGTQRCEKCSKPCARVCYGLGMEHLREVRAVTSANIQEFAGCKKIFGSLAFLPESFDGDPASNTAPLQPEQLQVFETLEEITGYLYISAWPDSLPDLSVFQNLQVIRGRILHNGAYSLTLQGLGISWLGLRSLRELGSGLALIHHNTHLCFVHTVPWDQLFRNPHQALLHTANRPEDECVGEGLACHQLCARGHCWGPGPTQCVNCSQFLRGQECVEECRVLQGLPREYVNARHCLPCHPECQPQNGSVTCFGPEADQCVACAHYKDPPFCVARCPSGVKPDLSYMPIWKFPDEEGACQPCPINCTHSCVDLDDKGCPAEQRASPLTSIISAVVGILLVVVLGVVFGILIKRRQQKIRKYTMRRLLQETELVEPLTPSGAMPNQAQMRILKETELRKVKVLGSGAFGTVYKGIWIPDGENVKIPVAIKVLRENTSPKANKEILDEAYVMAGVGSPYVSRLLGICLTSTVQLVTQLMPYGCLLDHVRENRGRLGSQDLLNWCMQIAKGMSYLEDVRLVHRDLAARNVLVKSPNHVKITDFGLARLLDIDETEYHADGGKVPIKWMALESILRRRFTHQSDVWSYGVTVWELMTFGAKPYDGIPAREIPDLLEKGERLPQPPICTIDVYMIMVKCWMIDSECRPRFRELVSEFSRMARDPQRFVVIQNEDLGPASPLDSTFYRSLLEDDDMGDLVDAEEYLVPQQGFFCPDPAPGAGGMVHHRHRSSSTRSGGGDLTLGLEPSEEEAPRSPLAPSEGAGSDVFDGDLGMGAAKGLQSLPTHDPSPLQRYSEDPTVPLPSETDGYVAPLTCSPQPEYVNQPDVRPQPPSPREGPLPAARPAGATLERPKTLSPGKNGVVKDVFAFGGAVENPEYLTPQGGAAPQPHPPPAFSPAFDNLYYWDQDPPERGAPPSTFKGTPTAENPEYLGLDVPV

[12] = system: BT-474; experiment: Antiproliferative activity against human BT474 cells assessed as reduction in cell viability incubated for 72 hrs by WST8 assay; format: functional, cell-based; settings: BT-474, 72 h
[13] = system: AU565; experiment: Antiproliferative activity against human AU565 cells assessed as reduction in cell viability incubated for 72 hrs by WST8 assay; format: functional, cell-based; settings: AU565, 72 h
[14] = biological target: T1, Receptor tyrosine-protein kinase erbB-2; experiment: Inhibition of HER2 (unknown origin) in presence of substrate incubated for 30 mins by ADP-Glo assay
[15] = system: MCF7; experiment: Potency index, ratio of lapatinib IC50 to test compound IC50 for antiproliferative activity against human MCF7 cells; format: functional
[16] = system: BT-474; experiment: Antitumor activity against human BT474 cells xenografted in athymic nude mouse assessed as reduction in metastasis of cells at 50 mg/kg, po administered via oral gavage for 5 times per week for 55 days measured post-last dose; format: functional, organism-based; settings: time 55.0 day
[17] = system: BT-474; experiment: Antitumor activity against human BT474 cells xenografted in athymic nude mouse assessed as suppression of tumor growth by measuring decrease in number of Ki67 positive cells at 50 mg/kg, po administered via oral gavage for 5 times per week for 55 days measured post-last dose by Ki67-staining based immunohistochemistry; format: functional, organism-based; settings: time 55.0 day
[18] = system: BT-474; experiment: Antitumor activity against human BT474 cells xenografted in athymic nude mouse assessed as inflammation in tumors at 50 mg/kg, po administered via oral gavage for 5 times per week for 55 days measured post-last dose by H and E staining based immunohistochemical analysis; format: functional, organism-based; settings: time 55.0 day
[19] = system: BT-474; experiment: Antitumor activity against human BT474 cells xenografted in athymic nude mouse assessed as appearance of tumor fibrosis at 50 mg/kg, po administered via oral gavage for 5 times in a week for 55 days measured post-last dose by H and E staining based immunohistochemical analysis; format: functional, organism-based; settings: time 55.0 day
[20] = system: BT-474; experiment: Antitumor activity against human BT474 cells xenografted in athymic nude mouse assessed as tumor necrosis at 50 mg/kg, po administered via oral gavage for 5 times in a week for 55 days measured post-last dose by H and E staining based immunohistochemical analysis; format: functional, organism-based; settings: time 55.0 day
[21] = system: BT-474; experiment: Antitumor activity against human BT474 cells xenografted in athymic nude mouse assessed as tumor weight at 50 mg/kg, po administered via oral gavage for 5 times in a week for 55 days measured post last dose (reference value: 2.046 g); format: functional; settings: time 55 day
[22] = system: BT-474; experiment: Antitumor activity against human BT474 cells xenografted in athymic nude mouse assessed as tumor growth inhibition at 50 mg/kg, po administered via oral gavage for 5 times in a week for 55 days measured post last dose; format: functional, organism-based; settings: time 55.0 day
[23] = system: AU565; experiment: Down regulation of HER2 expression in human AU565 cells at 0.1 IC50 incubated for 24 hrs by western blot analysis; format: functional, cell-based
[24] = system: T47D; experiment: Antiproliferative activity against human T47D cells assessed as cell growth inhibition after 48 hrs by SRB assay; format: functional; settings: pooled result: one value given for 5 cell lines, strains, targets or settings
[25] = Antiproliferative activity against human BC assessed as lethality at 10 uM after 48 hrs by SRB assay relative to control; format: functional
[26] = Antiproliferative activity against human BC assessed as cell growth inhibition at 10 uM after 48 hrs by SRB assay relative to control; format: functional; settings: read-out: GI
[27] = Antiproliferative activity against human MDA-MB-231 cells assessed as lethality at 10 uM after 48 hrs by SRB assay relative to control; format: functional, MDA-MB-23
[28] = system: MCF7; experiment: Antiproliferative activity against human MCF7 cells assessed as lethality at 10 uM after 48 hrs by SRB assay relative to control; format: functional
[29] = system: MDA-MB-468; experiment: Antiproliferative activity against human MDA-MB-468 cells assessed as cell growth inhibition after 48 hrs by SRB assay; format: functional
[30] = system: MDA-MB-468; experiment: Antiproliferative activity against human MDA-MB-468 cells assessed as lethality at 10 uM after 48 hrs by SRB assay relative to control; format: functional
[31] = system: MDA-MB-468; experiment: Antiproliferative activity against human MDA-MB-468 cells assessed as cell growth inhibition at 10 uM after 48 hrs by SRB assay relative to control; format: functional; settings: read-out: GI
[32] = system: Panel NCI-60 (60 carcinoma cell lines); experiment: Antiproliferative activity against human NCI60 cells assessed as lethality at 10 uM after 48 hrs by SRB assay relative to control; format: functional
[33] = system: Panel NCI-60 (60 carcinoma cell lines); experiment: Antiproliferative activity against human NCI60 cells assessed as mean cell growth at 10 uM after 48 hrs by SRB assay relative to control; format: functional
[34] = biological target: T1, Receptor tyrosine-protein kinase erbB-2; experiment: Inhibition of wild-type HER2 (unknown origin) at 100 nM in presence of substrate incubated for 30 mins by ADP-Glo assay relative to control
[35] = in vitro; settings: CD-1, mouse, liver microsomes
Description: Metabolic stability in CD-1 mouse liver microsomes assessed as parent compound remaining at 100 uM measured after 60 mins by LC-MS/MS analysis

[36] = in vitro; settings: CD-1, mouse, liver microsomes; remark: listed apart in the source
Description: Metabolic stability in CD-1 mouse liver microsomes assessed as parent compound remaining at 100 uM measured after 60 mins in presence of NADPH by LC-MS/MS analysis

[37] = in vitro; settings: CD-1, mouse, liver microsomes; remark: listed apart in the source
[38] = in vitro; settings: CD-1, mouse, microsomes
[39] = in vitro; settings: CD-1, mouse, liver microsomes; remark: listed apart in the source
[40] = system: AU565; experiment: Down regulation of HER2 expression in human AU565 cells at 0.5 IC50 incubated for 72 hrs by Western blot analysis; format: functional, cell-based

| SMILES | Activity [1] | Activity [2] | Activity [3] | Activity [4] | fold change (FC) [5] | fold change (FC) [6] | Activity [8] | IC50 [9] [nM] | IC50 [10] [nM] | inhibition [11] [%] | IC50 [12] [nM] | IC50 [13] [nM] | IC50 [14] [nM] | Ratio IC50 [15] | GI50 [24] [nM] | Activity [25] | inhibition of growth at 10 µM [26] [%] | Activity [27] [%] | Activity [28] [%] | GI50 [29] [nM] | also measured |
| --- | --- | --- | --- | --- | --- | --- | --- | --- | --- | --- | --- | --- | --- | --- | --- | --- | --- | --- | --- | --- | --- |
| CN1CCN(CC(=O)Nc2ccc3ncnc(Nc4ccc(OCc5cccc(F)c5)c(Cl)c4)c3c2)CC1 | inactive | inactive | inactive | inactive | 2 | 10 | Dose-dependent effect | 1360 | 1780 | 3 | 133 | 134 | 6.1 | <=20 | – | – | – | – | – | – | fold change (FC) [7]: 7 |
| CN1CCN(CCCOc2ccc3ncnc(Nc4ccc(OCc5cccc(F)c5)c(Cl)c4)c3c2)CC1 | inactive | inactive | inactive | inactive | <=3 | <=6 | Dose-dependent effect | 737 | 1930 | 3 | 83 | 99 | 8.3 | <=20 | 1370 | <=78.7% | ≤ 78.7 | 11.7 | 11.7 | 400 | Activity [16]: Active; Activity [17]: Active; Activity [18]: Active; Activity [19]: Active; Activity [20]: Active; Activity [21]: 1.223 g; TGI [22]: Active; Activity [23]: Active; Activity [30]: 11.7%; inhibition of growth at 10 µM [31]: 18.8%; Activity [32]: 1.3%; Activity [33]: 11.85%; inhibition [34]: 91%; remaining at 1 h, 100 µM [35]: 93.5%; remaining at 1 h, 100 µM [36]: 46.4%; CLint scaled at 1 h, 100 µM [37]: 95.7 mL/min/kg; microsomal CLint at 1 h, 100 µM [38]: 24.2 µL/min/mg; half-life at 1 h, 100 µM [39]: 57.4 min |
| Cc1cccc(Oc2ccc(Nc3ncnc4ccc(NC(=O)CN5CCN(C)CC5)cc34)cc2Cl)c1 | inactive | inactive | inactive | inactive | <=3 | <=6 | Dose-dependent effect | 4500 | 2650 | 3 | 81 | 135 | 5.4 | – | 1210 | <=78.7% | ≤ 78.7 | 18 | 18 | 400 | Activity [40]: inactive; Activity [30]: 18%; inhibition of growth at 10 µM [31]: 18.8%; Activity [32]: 1.3%; Activity [33]: 11.85% |
